The source of these data is publication PMC8698768, “The Effects of Sorbus aucuparia L. Fruit Extracts on Oxidative/Nitrative Modifications of Human Fibrinogen, Impact on Enzymatic Properties of Thrombin, and Hyaluronidase Activity In Vitro” (Antioxidants, 2021).

Experiment [1] deals with T1, hyaluronidase from bovine testes type I-S (Bos taurus, UniProt F1MTV1).
T1 construct: gene SPAM1; native commercial preparation from bovine testes (Sigma-Aldrich, type I-S)
T1 sequence (F1MTV1 36-553): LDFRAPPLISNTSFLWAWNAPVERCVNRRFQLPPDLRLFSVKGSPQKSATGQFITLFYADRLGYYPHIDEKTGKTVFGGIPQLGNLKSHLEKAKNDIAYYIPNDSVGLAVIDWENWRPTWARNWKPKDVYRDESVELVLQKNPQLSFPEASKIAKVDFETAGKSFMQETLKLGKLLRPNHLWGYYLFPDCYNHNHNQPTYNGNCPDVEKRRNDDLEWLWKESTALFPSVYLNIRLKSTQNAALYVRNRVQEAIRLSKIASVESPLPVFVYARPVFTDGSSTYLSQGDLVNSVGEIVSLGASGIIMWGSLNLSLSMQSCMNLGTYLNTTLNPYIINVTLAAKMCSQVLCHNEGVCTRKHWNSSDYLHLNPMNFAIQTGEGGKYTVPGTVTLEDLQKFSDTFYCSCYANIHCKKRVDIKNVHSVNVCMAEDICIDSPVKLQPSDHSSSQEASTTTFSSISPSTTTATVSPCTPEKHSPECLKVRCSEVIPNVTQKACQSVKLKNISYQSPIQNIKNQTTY
Kind of experiment: turbidimetric hyaluronidase inhibition assay. Format: biochemical. To be noted: substrate hyaluronic acid 0.03%, with bovine serum albumin 0.1%; per mL of the enzyme solution; read-out: IC50 (μg/mL) ^a. The text has this:
turbidimetric hyaluronidase inhibition assay on hyaluronidase from bovine testes type I-S

For the next experiment, the target named is T2, thrombin (Bos taurus, UniProt P00735).
T2 construct: gene F2; Biomed Lublin thrombin is usually of bovine origin, human (P00734) not excluded
Kind of experiment: chromogenic amidolytic assay (S-2238), […] nm. The class given is biochemical. Conditions: read-out: % inhibition at 50 μg/mL.

Molecules are shown by their SMILES. Where only a bound is given, the exact number is not on record here.

Consider `O=C(/C=C/c1ccc(O)c(O)c1)O[C@@H]1C[C@](O)(C(=O)O)C[C@@H](O)[C@H]1O` [CHA, chlorogenic acid], for which the IC50 in experiment [1] is > 339 µM. The same measure, in the same setting: with `O=c1c(O[C@@H]2O[C@H](CO)[C@@H](O)[C@H](O)[C@H]2O)c(-c2ccc(O)c(O)c2)oc2cc(O)cc(O)c12` [IQ, isoquercitrin] the figure was > 431 µM. With `Oc1cc(O)c2c(c1)O[C@H](c1ccc(O)c(O)c1)[C@H](O)[C@H]2c1c(O)cc(O)c2c1O[C@H](c1ccc(O)c(O)c1)[C@H](O)C2` [PB2, procyanidin B2], the inhibition at 50 µg/mL at thrombin came to 27%. In experiment [1], the IC50 is > 207 µM. On to `O=c1c(O[C@@H]2O[C@H](CO)[C@@H](O)[C@H](O)[C@H]2O[C@@H]2O[C@H](CO)[C@@H](O)[C@H](O)[C@H]2O)c(-c2ccc(O)c(O)c2)oc2cc(O)cc(O)c12` [SQ, quercetin 3-O-β-sophoroside], for which the IC50 in experiment [1] is > 319 µM.
